Results from PubChem BioAssay AID463204 (Broad Institute, 2010).
Active and inactive are the calls of the source.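 The calls were made as follows: active = AC50 no more than ten times the top concentration tested, that is within one log above it; inconclusive = flat curve fit with activity between 30% and 70%, or invalid poor fit; inactive = AC50 beyond ten times the top tested dose.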

System: S. cerevisiae Mot1-301 ts growth rescue, BacTiter-Glo ATP luminescence
Test: growth rescue of Mot1-301 ts yeast, confirmation, SUMOylation pathway inhibitor project, whole organism, S. cerevisiae, Mot1-301 ts mutant, luminescence, dose retest (AID 463204);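 also: growth at restrictive 38.5 degrees C of Mot1-301 OY566 strain; actives raise luminescence by restoring growth of the ts mutant at high temperature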

Row | Compound | AC50
1 | COCC(C)n1c(-c2ccc3c(c2)NC(=O)CO3)csc1=Nc1ccc(OC(F)F)cc1 (stereo not given) | 25.2 µM
2 | Oc1c(Br)cc(Br)cc1C=Nc1ccc2[nH]ncc2c1 | 4.76 µM
3 | CCC1C(c2ccccc2)NC(c2ccccc2)CC1(O)c1ccc(F)cc1 (stereo not given) | > 42 µM (inactive)
4 | O=C(O)CCC(=O)Nc1cccc(C(=O)Nc2ccc(Br)cc2)c1 | > 42 µM (inactive)
5 | C/C(=N\NC(=O)Cc1csc(N2CCOCC2)n1)c1ccccc1 | > 42 µM (inactive)
6 | O=C(Nc1cccc(N=Cc2cc(Br)cc(Br)c2O)c1)c1ccco1 | 2.81 µM
7 | CC(C)C(=O)Nc1ccc(-c2nc3cccnc3o2)cc1 | > 42 µM (inactive)
8 | O=C(OCC#CCSc1nnc(-c2ccccc2)o1)c1cc2ccccc2o1 | > 42 µM (inactive)
9 | N#Cc1ccc(C23CC4(C2)[C@H](CN(Cc2ccc(C(F)(F)F)cc2)[C@@H]4c2ccccc2)C3c2ccc(C(F)(F)F)cc2)cc1 (stereo not given in full) | > 42 µM (inactive)
10 | Cc1ccc(N2CN(CCc3ccccc3)CNC2=S)cc1 | > 42 µM (inactive)
11 | CCOc1ccc(-c2nc(C#N)c(N3CCOCC3)o2)cc1 | > 42 µM (inactive)
12 | Cc1cc(S(=O)(=O)NCC(C)C)ccc1OCC(=O)N1CCOCC1 | > 42 µM (inactive)
13 | CCCCn1c(N)c(N(CCOC)C(=O)c2cnccn2)c(=O)[nH]c1=O | > 42 µM (inactive)
14 | COC(CNC(=O)c1cn(C)c2ccc(S(=O)(=O)N3CCOCC3)cc2c1=O)OC | > 42 µM (inactive)
15 | CCOc1ccccc1NC(=O)c1ccc2c(c1)C(=O)N(CC(C)C)C2=O | > 42 µM (inactive)
16 | CCOC(=O)c1cccc(NC(=O)C2CCCN(S(=O)(=O)c3c(C)n[nH]c3C)C2)c1 (stereo not given) | > 42 µM (inactive)
17 | CCOc1cc(/C=N/NC(=O)C(=O)N/N=C/c2ccc(O)c(OCC)c2)ccc1O | > 42 µM (inactive)
18 | CCCCCCCCCCOC(=O)Cn1c(COc2ccccc2OC)[n+](C)c2ccccc21 | 13.4 µM
19 | CCCCn1c(N)c(N(CC(C)C)C(=O)CSCC(=O)Nc2cccc(C)c2)c(=O)[nH]c1=O | > 42 µM (inactive)
20 | CCOc1ccc(CN(C)C(C)C(=O)NCc2ccccc2)cc1 (stereo not given) | > 42 µM (inactive)
21 | CN(C(=O)CSc1nnc(-c2cccc(F)c2)n1N)C1CCS(=O)(=O)C1 (stereo not given) | > 42 µM (inactive)
22 | Cc1ccc(-c2csc(C3=C(O)CN(NC(=O)c4ccco4)C3=N)n2)cc1 | > 42 µM (inactive)
23 | O=C(c1ccc(OC2CCN(CCc3ccccc3)CC2)cc1)N1CCCC1 | > 42 µM (inactive)
24 | COc1ccc2c(c1)OC[C@H]1[C@H]2N2C(=O)c3ccccc3NC(=O)[C@@]2(C)[C@H]1c1ccccc1 | > 42 µM (inactive)
25 | COC(=O)c1ccccc1SC(CC(=O)c1ccccc1)c1ccc(F)cc1 (stereo not given) | > 42 µM (inactive)

Row | Compound | AC50
26 | O=C(NCCc1c[nH]c2ccccc12)c1cc(S(=O)(=O)N2CCCCC2)ccc1N1CCOCC1 | > 42 µM (inactive)
27 | COc1ccc(CC(=O)NCCN2CCOCC2)cc1 | > 42 µM (inactive)
28 | CCOC(=O)C1CCN(C(=O)COc2ccc(S(=O)(=O)N3CCOCC3)cc2C)CC1 | > 42 µM (inactive)
29 | Nc1ccc(S(=O)(=O)NNC(=O)C(=O)NNc2ccccc2)cc1 | > 42 µM (inactive)
30 | CCN(Cc1ccccc1)Cc1ccc(OCc2ccccc2)c(OC)c1 | > 42 µM (inactive)
31 | Cc1ccccc1C(=O)NN(C)c1nc2ccccc2nc1C(F)(F)F | > 42 µM (inactive)
32 | CC(C)(C)C(=O)C(Cl)C(=O)Nc1ccccc1 (stereo not given) | 3.35 µM
33 | Cc1cc(NC(=O)c2ccccc2F)n(C(C)(C)C)n1 | > 42 µM (inactive)
34 | COC(=O)CCC(=O)OC1(C)C(=O)C=C2C=C(C3CC3)N(Cc3ccc4c(c3)OCO4)C=C2C1=O (stereo not given) | > 42 µM (inactive)
35 | CCOc1ccccc1N(CC(=O)Nc1ccccc1C(=O)N1CCCC1)S(C)(=O)=O | > 42 µM (inactive)
36 | COCCn1c(C)cc(C(=O)CN2C(=O)NC3(CCCCCCC3)C2=O)c1C | > 42 µM (inactive)
37 | CC1(C)CCc2cc(CN3CCN(c4ccccn4)CC3)ccc2O1 | > 42 µM (inactive)
38 | CN(c1ccccc1C(=O)N1CCN(Cc2ccc3c(c2)OCO3)CC1)S(C)(=O)=O | > 42 µM (inactive)
39 | Cc1c(C(=O)N2CCN(CCc3ccccc3)CC2)oc2ccccc12 | > 42 µM (inactive)
40 | COc1cccc(-n2c(Cc3cc(=O)[nH]c(=O)[nH]3)nnc2SCc2cccnc2)c1 | > 42 µM (inactive)
41 | COC(=O)[C@@H](NC(=O)Nc1ccc(S(N)(=O)=O)cc1)C(C)C | > 42 µM (inactive)
42 | Cc1cc(Cl)c2oc(C(=O)NC3CCC(O)CC3)c(C)c2c1 (stereo not given) | > 42 µM (inactive)
43 | O=C(N1CCOCC1)C1(S(=O)(=O)c2ccccc2)CC=CC1 | > 42 µM (inactive)
44 | Nc1cc(C(=O)OCC(=O)N2CCOCC2)ccc1Cl | > 42 µM (inactive)
45 | CC(C)(C)C1c2[nH]c3ccccc3c2CCN1Cc1cccc(OCCO)c1 (stereo not given) | > 42 µM (inactive)
46 | Nc1cc(=O)[nH]c(=O)n1CCc1ccccc1 | > 42 µM (inactive)
47 | COc1cc(C(=O)Nc2ccc3c(c2)OCCO3)ccc1-n1cnnn1 | > 42 µM (inactive)
48 | O=C(CSc1ncccn1)c1ccccc1Br | > 42 µM (inactive)
49 | CC1=C(C#N)S(=O)(=O)C(C#N)C(c2ccccc2)C1 (stereo not given) | > 42 µM (inactive)
50 | CCC1(CC)NC(=O)N(CC(=O)N2N=C(c3ccc(Cl)cc3)CC2c2ccco2)C1=O (stereo not given) | > 42 µM (inactive)

Row | Compound | AC50
51 | CCSc1nc2ccccc2c(=O)n1C1CCOC(C)(C)C1 (stereo not given) | > 42 µM (inactive)
52 | CSc1nncc(/C(C)=N\Nc2cccc(C)c2)n1 | > 42 µM (inactive)
53 | NC(=O)C1=C[C@@H](c2ccc(Br)cc2)C[C@@H](OCCCCO)O1 | > 42 µM (inactive)
54 | CCCOc1ccc([N+](=O)[O-])c(N)c1 | > 42 µM (inactive)
55 | Fc1ccc(-c2cc(C(F)(F)F)nc(NCc3cccs3)n2)cc1 | > 42 µM (inactive)
56 | CCCCCNC(=O)c1ccc2c(=O)n(CC3CCCO3)c(=O)[nH]c2c1 (stereo not given) | > 42 µM (inactive)
57 | CCC(=O)Nc1ccc(Br)c(Cl)c1 | > 42 µM (inactive)
58 | COc1cc(NC(=O)C2=CC(c3ccco3)=NS(=O)(=O)N2C)cc(OC)c1OC | > 42 µM (inactive)
59 | Cc1cc(C)n2c(SCC(C)C)nnc2n1 | > 42 µM (inactive)
60 | CC1CCN(CCCCOc2ccc(F)cc2)CC1 | > 42 µM (inactive)
61 | O=C(NCCCn1ccnc1)Nc1cccc2ccccc12 | > 42 µM (inactive)
62 | CCOc1ccc(N2CC(C(=O)OC)CC2=O)cc1 (stereo not given) | > 42 µM (inactive)
63 | COc1cccc(OC)c1C(=O)N1CCN(Cc2ccccc2C)CC1 | > 42 µM (inactive)
64 | Cc1ccc(C(=O)NNc2ncnc3c2cnn3C)cc1 | > 42 µM (inactive)
65 | CCc1nnc(NC(=O)CSc2nc3c(cc2C#N)CCCC3)s1 | > 42 µM (inactive)
66 | CN(C)C(=O)c1cc(C(=O)c2ccc(C(F)(F)F)cc2F)c[nH]1 | > 42 µM (inactive)
67 | O=C(NC1CCCCC1)c1ccc2snnc2c1 | > 42 µM (inactive)
68 | COC(=O)c1[nH]c2cc(C)ccc2c1NC(=O)CN1CCN(c2ccccc2OC)CC1 | > 21 µM (inactive)
69 | COCCCNCC(O)COc1cccc2[nH]c(C)cc12 (stereo not given) | > 42 µM (inactive)
70 | N#Cc1cccc(NC(=O)CSc2n[nH]c(=O)[nH]c2=O)c1 | > 42 µM (inactive)
71 | O=C(CSc1nnc2ccccn12)NNC(=O)c1ccc(Cl)cc1 | > 42 µM (inactive)
72 | COc1ccc(-c2[nH]nc3c2C(c2ccncc2)C(C#N)=C(N)O3)cc1 (stereo not given) | > 42 µM (inactive)
73 | CCCNC(=O)Cn1sc2nc(C)cc(C)c2c1=O | > 42 µM (inactive)
74 | Cc1ccc(S(=O)(=O)NCC(C)n2cncn2)cc1 (stereo not given) | > 42 µM (inactive)
75 | Fc1ccc(-c2n[nH]c(=S)n2CC2CCCO2)cc1 (stereo not given) | > 42 µM (inactive)

Row | Compound | AC50
76 | CCN(CC)S(=O)(=O)c1ccc(C(=O)NCCc2cc3c(OC)ccc(OC)c3[nH]c2=O)cc1 | > 42 µM (inactive)
77 | Cc1c(C(=O)Nc2cccc(F)c2)cnn1-c1ccccc1 | > 42 µM (inactive)
78 | O=C(Nc1ccccc1N1CCOCC1)c1cc(Br)c(Br)s1 | > 42 µM (inactive)
79 | Cc1cccc(N=Nc2ccc(N(C)C)cc2)c1 | > 42 µM (inactive)
80 | COc1ccc(-c2cc(C(=O)Nc3cc(C)ccc3O)no2)cc1 | > 42 µM (inactive)
81 | O=[N+]([O-])c1ccc(N/N=C/c2cccc(O)c2)cc1 | 29.4 µM
82 | Cc1noc(C)c1Cc1ccc(O)cc1 | > 42 µM (inactive)
83 | Cn1c(CN2CCOCC2)nnc1SCC(=O)Nc1cc(Cl)ccc1Cl | > 42 µM (inactive)
84 | COc1ccc(NC(=O)c2cc(S(=O)(=O)Nc3ccc(OC)cc3)cs2)cc1 | > 42 µM (inactive)
85 | O=C(CSc1nc(=O)n2ccccc2n1)N1CCN(c2ccccc2)CC1 | > 42 µM (inactive)
86 | CCn1cc(C(=O)NCc2ccccn2)c(=O)c2cc(F)c(N3CCN(C)CC3)cc21 | > 42 µM (inactive)
87 | Cc1cccc(-[n+]2c(-c3cccc(Br)c3)[nH]c3nc4ccccc4nc32)c1 | > 42 µM (inactive)
88 | Nc1nc(-c2ccc(Cl)cc2)nc(-c2ccc(Cl)cc2)n1 | > 42 µM (inactive)
89 | O=C(COC(=O)Cc1ccsc1)NC1CCCCCC1 | > 42 µM (inactive)
90 | CCN1CCN(C(=O)c2ccc3nc(-c4ccccc4)c(-c4ccccc4)nc3c2)CC1 | > 42 µM (inactive)
91 | O=C(CC(c1ccccc1)c1ccccc1)NCCOCc1ccccc1 | > 42 µM (inactive)
92 | O=C(O)c1cc(Oc2ccc(C(F)(F)F)cc2Cl)ccc1[N+](=O)[O-] | > 42 µM (inactive)
93 | CCOC(=O)c1ccc(NC(=O)c2c(NC(=O)CCC(=O)O)sc3c2CCCCC3)cc1 | > 42 µM (inactive)
94 | C[N+](C)(C)CC(=O)Nc1ccc(Cl)cc1C(=O)c1ccccc1 | > 42 µM (inactive)
95 | NS(=O)(=O)c1ccc(CCNC(=O)c2ccc([N+](=O)[O-])s2)cc1 | > 42 µM (inactive)
96 | Cc1ccccc1C(=O)/C=C1\NC(=O)CS1 | > 21 µM (inactive)
97 | COc1ccc(N2CCN(CCCNC(=O)C(=O)c3c(C)[nH]c4ccccc34)CC2)cc1 | > 21 µM (inactive)
98 | O=C(Nc1nc(-c2ccccn2)cs1)c1ccc2c(c1)OCCO2 | > 42 µM (inactive)
99 | CCC12CN3CCN(CC(C3)/C1=N/NC(=O)c1ccncc1)C2 | > 42 µM (inactive)
100 | COc1ccc(NC(=O)c2cc(C)no2)cc1Cl | > 42 µM (inactive)
